Common to all, as to experiment: NCI tumour cell line growth inhibition, 48 h
In assay [1] the test system is EKVX.
The subject of assay [2] is SK-OV-3.
Assay [3] has as its system HOP-92.
For assay [4], the system named is M14.
Assay [5] deals with HCT-116.
Assay [6] relates to SF-539.
The subject of assay [7] is RPMI-8226.
The subject of assay [8] is MDA-MB-231.
Assay [9] concerns SF-268.
In assay [10] the test system is OVCAR-4.
The test system of assay [11] is A549.
Assay [12] deals with HL-60.
Assay [13] concerns OVCAR-8.
The test system of assay [14] is NCI-H522.
Assay [15] has as its system UACC-62.
In assay [16] the test system is IGROV-1.
The test system of assay [17] is MCF7.
Assay [18] deals with SW-620.
The subject of assay [19] is BT-549.
Assay [20] concerns LXFL 529.

Structures are written as SMILES.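 Interpolation was linear, between the two tested concentrations surrounding the appropriate level; five concentrations were tested over 48 hours in 96-well plates. GI50 is the concentration that inhibits growth by half.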 Activity calls are given as the source filed them. Rule as the data show it: active = GI50 up to about 1.1 µM and inactive = higher.

`CCn1c2ccccc2c2nnc(NCCCO)nc21`: the GI50 is 28 µM (inactive) in assay [1]; > 100 µM (inactive) in [2]; > 100 µM (inactive) in assay [3]; > 100 µM (inactive) in assay [4]; > 100 µM (inactive) in [5]; > 100 µM (inactive) in [6]. Also, the GI50 in [7], in assay [8], in [9], in assay [10], in assay [11] and in [12] was > 100 µM (inactive) throughout. The GI50 in assay [13], in assay [14], in assay [15], in [16], in assay [17] and in assay [18] was > 100 µM (inactive) throughout. Further, the GI50 in assay [19] is > 100 µM (inactive).
Consider `COc1cc(C2=N/C(=C/c3cccs3)C(=O)O2)cc(OC)c1OC`, for which the GI50 in [1], in assay [2], in assay [3], in [4], in assay [5] and in assay [6] was > 100 µM (inactive) in each case. Further, the GI50 in assay [7], in assay [8], in [9], in [10], in assay [11] and in assay [12] was > 100 µM (inactive) throughout. The GI50 in [13], in assay [14], in assay [15], in assay [16], in [17] and in [18] was > 100 µM (inactive) each time. The GI50 in [19] is > 100 µM (inactive).
`C1CN2CCNCCN(CCN1)CC2`: the GI50 in [1], in assay [2], in assay [3], in assay [4], in [5] and in assay [6] was > 100 µM (inactive) throughout. The GI50 is > 100 µM (inactive) in assay [7]; > 100 µM (inactive) in assay [8]; > 100 µM (inactive) in assay [9]; > 100 µM (inactive) in [10]; > 100 µM (inactive) in assay [11]; 20.9 µM (inactive) in assay [12]. In addition, the GI50 in assay [13], in assay [14], in assay [15], in assay [16], in assay [17] and in assay [18] was > 100 µM (inactive) each time. In [19], the GI50 was > 100 µM (inactive).
Turning to `COc1ccc(C(=O)/C=C/c2cc(O)c(O)c(F)c2F)c(OC)c1`, the GI50 in assay [1] was 25 µM (inactive); in assay [2], 21.5 µM (inactive); in assay [3], 46.7 µM (inactive); in [4], 22.8 µM (inactive); in assay [5], 6.95 µM (inactive); in assay [6] it was 16.7 µM (inactive). Also, the GI50 is 8.83 µM (inactive) in [7]; 18.8 µM (inactive) in [8]; 18.6 µM (inactive) in assay [9]; 19 µM (inactive) in assay [10]; 16.1 µM (inactive) in assay [11]; 4.22 µM (inactive) in assay [12]. For the same compound, the GI50 in assay [13] is 20.8 µM (inactive); in assay [14] it was 11.2 µM (inactive); in assay [15] it was 15.1 µM (inactive); in assay [16] it was 19.8 µM (inactive); in assay [17], 3.22 µM (inactive); in assay [18], 15.4 µM (inactive). The GI50 in assay [19] was 19.2 µM (inactive).
`CC(C)(C)NNC(=O)CCn1[nH]c(=O)c(Cl)c(Cl)c1=O`: the GI50 in assay [1], in [2], in assay [4], in assay [20], in assay [6] and in assay [7] was > 100 µM (inactive) in each case. Moreover, the GI50 in [9], in assay [10], in [11], in assay [12], in [13] and in assay [14] was > 100 µM (inactive) in each case. For the same compound, the GI50 in assay [15], in assay [16] and in [18] was > 100 µM (inactive) in each case.
As to `COC1CC(OC2C(C)OC(OC3C(C)OC(OC4C(C)OC(O[C@H]5CC[C@@]6(C)C(=CC[C@]7(O)[C@@H]6C[C@@H](O)[C@@]6(C)[C@]7(O)CC[C@@]6(O)C(C)=O)C5)CC4OC)CC3OC)CC2OC)OC(C)C1O` (stereo partly specified), the GI50 in assay [1], in assay [2], in assay [3], in [4], in assay [5] and in [6] was > 12.5 µM (inactive) throughout. For the same compound, the GI50 in [7], in [8], in assay [9], in assay [10], in [11] and in assay [12] was > 12.5 µM (inactive) each time. In addition, the GI50 in assay [13], in assay [14], in assay [15], in assay [16], in assay [17] and in assay [18] was > 12.5 µM (inactive) in each case. The GI50 in [19] is > 12.5 µM (inactive).
With `C=CC[P@]1(=O)O[C@H](c2ccccc2)[C@H](C)N1C`, the GI50 in assay [1], in assay [2], in assay [4], in assay [20], in assay [6] and in assay [7] was > 100 µM (inactive) each time. Besides, the GI50 in assay [9], in [10], in assay [11], in [12], in assay [13] and in assay [15] was > 100 µM (inactive) throughout. Moreover, the GI50 in assay [16] and in assay [18] was > 100 µM (inactive) each time.
`Cc1cc(N(CC(C)Br)CC(C)Br)ccc1/N=N/c1ccccc1C(=O)O` (stereo unspecified): the GI50 in assay [1] was 9.12 µM (inactive); in assay [2] it was 13.1 µM (inactive); in assay [3], 2.24 µM (inactive); in assay [4] it was 6.04 µM (inactive); in assay [5], 4.99 µM (inactive); in assay [6] it was 1.45 µM (inactive). The GI50 in assay [7] was 1.75 µM (inactive); in assay [8], 14.8 µM (inactive); in assay [9] it was 7.73 µM (inactive); in assay [10], 2.09 µM (inactive); in assay [11] it was 3.04 µM (inactive); in assay [12], 6.05 µM (inactive). In addition, the GI50 in assay [13] is 13.2 µM (inactive); in [14], 3.03 µM (inactive); in assay [15], 1.52 µM (inactive); in assay [16], 11 µM (inactive); in assay [17] it was 0.787 µM (active); in assay [18] it was 20 µM (inactive). Also, the GI50 in [19] is 11.3 µM (inactive).
Regarding `CC1Cc2cc(O)ccc2C2[C@@H]1C1CC[C@H](O)[C@@]1(C)C[C@@H]2O[N+](=O)[O-]` (stereo partly specified), the GI50 in assay [1] is 21.4 µM (inactive); in [2], 19.6 µM (inactive); in assay [3], 13.1 µM (inactive); in assay [4], 6.15 µM (inactive); in [5] it was 5.18 µM (inactive); in assay [6], 3.79 µM (inactive). The GI50 in [7] is 5.64 µM (inactive); in [8], 12.1 µM (inactive); in assay [9] it was 16.2 µM (inactive); in assay [10] it was 26.7 µM (inactive); in [11], 11 µM (inactive); in assay [12], 2.79 µM (inactive). The GI50 was 16.8 µM (inactive) in [13]; 5.62 µM (inactive) in assay [14]; 5.46 µM (inactive) in assay [15]; 25.2 µM (inactive) in [16]; 4.86 µM (inactive) in assay [17]; 6.76 µM (inactive) in [18]. Besides, the GI50 in assay [19] is 10.9 µM (inactive).
Consider `CN(C(=O)/C=C/c1ccccc1)C1C2CN3CCC(O2)C13` (stereo unspecified), for which the GI50 in [1], in assay [2], in [4], in assay [20], in assay [5] and in assay [6] was > 100 µM (inactive) each time. In addition, the GI50 in [9], in [10], in [11], in [12], in [13] and in [14] was > 100 µM (inactive) throughout. The GI50 in assay [15], in [16] and in assay [18] was > 100 µM (inactive) in each case.
Take `Clc1ccc(COC(Cn2ccnc2)c2ccc(Cl)cc2Cl)cc1` (stereo unspecified) [ECONAZOLE NITRATE]: the GI50 is 12.1 µM (inactive) in [1]; 19.7 µM (inactive) in assay [2]; 11.8 µM (inactive) in assay [3]; 13 µM (inactive) in [4]; 6.67 µM (inactive) in assay [5]; 13.6 µM (inactive) in [6]. The GI50 in [7] was 4.22 µM (inactive); in [8] it was 12.4 µM (inactive); in [9], 14.7 µM (inactive); in assay [10], 8.3 µM (inactive); in assay [11], 9.79 µM (inactive); in assay [12], 4.19 µM (inactive). For the same compound, the GI50 in assay [13] was 14.8 µM (inactive); in assay [14], 8.24 µM (inactive); in [15], 9.86 µM (inactive); in assay [16] it was 12.2 µM (inactive); in [17] it was 8.26 µM (inactive); in assay [18], 11.3 µM (inactive). For the same compound, the GI50 in assay [19] was 15.2 µM (inactive).

The values above are taken from ChEMBL document CHEMBL1201862, “PubChem BioAssay data set” (2004).
